Test: plasma concentration of itraconazole required for clinical benefit in humans with cancer
Assay type: in vivo
Conditions: human, after 4 weeks of therapy, read-out: minimum plasma trough level required to have a clinically significant effect
Experimental: Optionally, the treatment method further comprises measuring the plasma level of the HhP inhibitor, or a metabolite thereof, in the subject one or more times. In some embodiments, the measuring is carried out one or more times about 4 weeks after initiation of treatment with the HhP inhibitor. Observations concerning the desirability of achieving a plasma trough level of at least about 1,000 ng/mL of the HhP inhibitor are described in U.S. Pat. No. 9,192,609 (“Treatment and Prognostic Monitoring of Proliferation Disorders Using Hedgehog Pathway Inhibitors”; Virca and O'Donnell), which is incorporated herein by reference in its entirety.
In particular, the minimum plasma trough level after 4 weeks of therapy required to have a clinically significant effect was at least 1000 ng/ml. […] Nevertheless, there can be side-effects peculiar to such high doses such as hypertension, peripheral edema, and hypokalemia, which seem to be a result of an increased production of mineralocorticoid. These side effects associated with these high doses of itraconazole can be effectively managed by giving a selective mineralocorticoid antagonist, such as eplerenone. Accordingly, in some embodiments, the method further comprises administering eplerenone or other mineralocorticoid inhibitor. […]

concentration at 4 weeks: ≥ 1000 ng/mL
Compound: CCC(C)n1ncn(-c2ccc(N3CCN(c4ccc(OCC5COC(Cn6cncn6)(c6ccc(Cl)cc6Cl)O5)cc4)CC3)cc2)c1=O (stereo not shown) [itraconazole]

From patent US20190365742A1, “AZOLE TREATMENT REGIMEN WITH REDUCED HEPATOTOXICITY” (HEDGEPATH PHARMACEUTICALS, INC., priority 2018, published 2019)
